The source made the active and inactive calls. The calls are words filed in the database; no cut-off is given here.
Experiments:
[1] = tested on: Escherichia coli; test: Binding affinity to Escherichia coli pBR322 DNA assessed as decrease in mobility of form 1 DNA at low concentration after 24 hr by agarose gel electrophoresis
[2] = tested on: Candida tropicalis; test: Antifungal activity against Candida tropicalis ATCC 13803 after 72 hr by disk diffusion method; type: functional, organism-based
[3] = tested on: Candida albicans; test: Antifungal activity against Candida albicans ATCC 10231 after 72 hr by disk diffusion method; type: functional, organism-based
[4] = tested on: Proteus vulgaris; test: Antibacterial activity against Proteus vulgaris ATCC 8427 after 24 hr by disk diffusion method; type: functional, organism-based
[5] = tested on: Escherichia coli; test: Antibacterial activity against Escherichia coli ATCC 25922 after 24 hr by disk diffusion method; type: functional, organism-based
[6] = tested on: Escherichia coli; test: Antibacterial activity against Escherichia coli ATCC 35218 after 24 hr by disk diffusion method; type: functional, organism-based
[7] = tested on: Pseudomonas aeruginosa; test: Antibacterial activity against Pseudomonas aeruginosa ATCC 27853 after 24 hr by disk diffusion method; type: functional, organism-based
[8] = tested on: Enterococcus faecalis; test: Antibacterial activity against Enterococcus faecalis […] after 24 hr by disk diffusion method; type: functional, organism-based
[9] = tested on: Bacillus subtilis; test: Antibacterial activity against Bacillus subtilis […] after 24 hr by disk diffusion method; type: functional, organism-based
[10] = tested on: Bacillus cereus; test: Antibacterial activity against Bacillus cereus NRLL B-3008 after 24 hr by disk diffusion method; type: functional, organism-based
[11] = tested on: Staphylococcus aureus; test: Antibacterial activity against Staphylococcus aureus ATCC 25923 after 24 hr by disk diffusion method; type: functional, organism-based
[12] = tested on: Escherichia coli; test: Binding affinity to Escherichia coli pBR322 DNA assessed as appearance of DNA fragments at low concentration after 24 hr by agarose gel electrophoresis
[13] = tested on: Escherichia coli; test: Covalent binding to Escherichia coli pBR322 DNA adenine-adenine site assessed as inhibition of Hind3-mediated restriction digestion at 1250 uM by restriction endonuclease analysis
[14] = tested on: Escherichia coli; test: Covalent binding to Escherichia coli pBR322 DNA Guanine-guanine site assessed as inhibition of BamH1-mediated restriction digestion at 1250 uM by restriction endonuclease analysis
[15] = tested on: Escherichia coli; test: Covalent binding to Escherichia coli pBR322 DNA assessed as decrease in intensity of form 2 DNA at low concentration after 24 hr by agarose gel electrophoresis
[16] = tested on: Escherichia coli; test: Covalent binding to Escherichia coli pBR322 DNA assessed as increase in intensity of form 1 DNA at low concentration after 24 hr by agarose gel electrophoresis
[17] = tested on: Escherichia coli; test: Covalent binding to Escherichia coli pBR322 DNA assessed as disappearance of form 2 DNA at low concentration after 24 hr by agarose gel electrophoresis

Activity [1]	Activity [12]	Activity [13]	Activity [14]	Activity [15]	Activity [16]	Activity [17]	SMILES	Activity [2]	Activity [3]	Activity [4]	Activity [5]	Activity [6]	Activity [7]	Activity [8]	Activity [9]	Activity [10]	Activity [11]
Active	Active	Active	inactive	–	–	–	CCCn1cnc2c(Nc3nnn[nH]3)ncnc21	inactive	inactive	inactive	inactive	inactive	inactive	inactive	inactive	inactive	inactive
–	Active	Active	Active	Active	Active	–	Cn1nnnc1Sc1ncnc2c1ncn2CC1CCCCC1	inactive	inactive	inactive	inactive	inactive	inactive	inactive	inactive	inactive	inactive
Active	–	Active	Active	–	–	Active	CCCCCCn1cnc2c(Sc3nnnn3C)ncnc21	inactive	inactive	inactive	inactive	inactive	inactive	inactive	inactive	inactive	inactive
